From US20100010035A1, “Novel Dual Action Receptors Antagonists (Dara) at the Ati and Eta Receptors” (priority 2006, published 2010)

How the values were obtained:
human AT1 receptor = molecular target: T1, human AT1 receptor (Homo sapiens, UniProt P30556); assay: AT1 functional assay (FLIPR Ca efflux, Angiotensin-II at EC80); type: cell-based; details: CHO cells over-expressing full length human AT1 receptor; Angiotensin-II as agonist at EC80
T1 construct: CHO cell stably over-expressing the full length human AT1 receptor; expressed in transfected cells
T1 sequence (P30556 1-359): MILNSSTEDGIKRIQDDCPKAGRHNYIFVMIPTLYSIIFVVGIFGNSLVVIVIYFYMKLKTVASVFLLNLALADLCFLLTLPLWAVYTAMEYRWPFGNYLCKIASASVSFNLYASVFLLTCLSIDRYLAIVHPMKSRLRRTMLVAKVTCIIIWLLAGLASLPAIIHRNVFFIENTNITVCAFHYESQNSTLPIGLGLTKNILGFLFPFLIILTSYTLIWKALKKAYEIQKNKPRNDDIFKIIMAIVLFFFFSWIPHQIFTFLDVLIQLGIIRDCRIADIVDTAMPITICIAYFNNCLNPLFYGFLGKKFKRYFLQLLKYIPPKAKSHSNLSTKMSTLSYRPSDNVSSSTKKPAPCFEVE
Protocol: CHO cell stably over-expressing the full length human AT1 receptor was cultured in DMEM (Gibco) with 10% FCS (Hyclone) and selection maintained using 0.5 mg/ml G418 (Gibco). Cell at 70% confluence were trypsnised, resuspended in media and counted. 20,000 cells/well were plated into black polystyrene 384-well plates with transparent bottoms and allowed 16 hours to adhere. The cells were loaded with Flou-4 (TEFLABS, USA) dye in HBSS (Gibco) for 1 hour and then washed in HBSS and 0.6 μl of diluted compounds in DMSO added to the cells in 30 μd of HBSS in Multimek liquid handling system (Beckman, USA). The cells were then placed in the Fluorometric Imaging Plate Readers (FLIPR, Molecular Devices, USA) and 20 μl of Angiotensin-II peptide as agonist (at EC80) in HBSS was added in the instrument.
(§1) The Ca efflux was followed for 2 mins and the maximum height of the peak was measured at various compound concentrations and plotted according to the equation
(§2) and IC50 estimated wherein A is the bottom plateau of the curve i.e. the final minimum y value B is the top of the plateau of the curve i.e. the final maximum y value C is the x value at the middle of the curve. This represents the log EC50 value when A+B=100 D is the slope factor. x is the original known x values. y is the original known y values.

human ETA receptor = molecular target: T2, human ETA receptor (Homo sapiens, UniProt P25101); assay: ETA functional assay (FLIPR Ca efflux, Endothelin-1 at EC80); type: cell-based; details: CHO cells over-expressing full length human ETA receptor; Endothelin-1 as agonist at EC80
T2 construct: CHO cell stably over-expressing the full length human ETA receptor; expressed in transfected cells
T2 sequence (P25101 21-427): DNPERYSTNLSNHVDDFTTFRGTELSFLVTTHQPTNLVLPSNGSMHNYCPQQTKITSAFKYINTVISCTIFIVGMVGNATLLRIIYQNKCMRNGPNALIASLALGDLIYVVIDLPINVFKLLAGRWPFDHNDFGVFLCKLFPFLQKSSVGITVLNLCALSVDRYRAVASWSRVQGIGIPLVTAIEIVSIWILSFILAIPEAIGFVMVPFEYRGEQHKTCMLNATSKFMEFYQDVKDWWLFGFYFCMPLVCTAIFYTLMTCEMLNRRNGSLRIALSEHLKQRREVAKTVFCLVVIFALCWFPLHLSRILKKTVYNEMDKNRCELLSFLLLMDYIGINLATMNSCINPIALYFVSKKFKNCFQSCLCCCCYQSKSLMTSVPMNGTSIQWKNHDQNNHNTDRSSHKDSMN
Protocol: CHO cell stably over-expressing the full length human ETA receptor was cultured in DMEM (Gibco) with 10% FCS (Hyclone) and selection maintained using 0.5 mg/ml G418 (Gibco). Cell at 70% confluence were trypsnised, resuspended in media and counted. 20,000 cells/well were plated into black polystyrene 384-well plates with transparent bottoms and allowed 16 hours to adhere. The cells were loaded with Flou-4 (TEFLABS, USA) dye in BSS (Gibco) for 1 hour and then washed in HBSS and 0.6 μl of diluted compounds in DMSO added to the cells in 30 μl of HBSS in Multimek liquid handling system (Beckman, USA). The cells were then placed in the Fluorometric Imaging Plate Readers (FLIPR, Molecular Devices, USA) and 20 μl of Endothelin-1 peptide as agonist in HBSS (at EC80) was added in the instrument.
as §1, §2

IC50 (human AT1 receptor)	IC50 (human ETA receptor)	Structure (SMILES)
24.6 nM	814 nM	CCc1cc2c(ccc(=O)n2Cc2ccc(-c3cc(C)sc3S(=O)(=O)Nc3noc(C)c3C)cc2)c(CC)n1 [Example 7, 3-[4-(5,7-diethyl-2-oxo-2H-[1,6]naphthyridin-1-yl-methyl)-phenyl]-5-methyl-thiophene-2-sulphonic acid-(4,5 dimethyl-isoxazol-3-yl)-amide]
22.1 nM	248 nM	CCOCc1cc(Cn2nc(-c3ccc(OC)cc3)c3c(C)nc(CC)cc32)ccc1-c1cc(C)sc1S(=O)(=O)Nc1noc(C)c1C [Example 23, 3-{2-Ethoxymethyl-4-[6-ethyl-3-(4-methoxy-phenyl)-4-methyl-pyrazolo[4,3-c]pyridin-1-ylmethyl]-phenyl}-5-methyl-thiophene-2-sulfonic acid (4,5-dimethyl-isoxazol-3-yl)-amide]
7.98 nM	1430 nM	Cc1cc2c(c(C)n1)c(-c1ccccc1)nn2Cc1ccc(-c2cc(C)sc2S(=O)(=O)Nc2noc(C)c2C)c(C)c1 [Example 18]
